Results on 13 molecules are retold here after paper PMC11112591 (ACS Omega, 2024).

A short description of data set [1]: Mouse liver microsome intrinsic clearance. The conditions noted are these: liver microsomes, pH 7.4. It counts as in vitro ADME.
The nature of data set [2]: Parallel artificial membrane permeability assay. To be noted: PAMPA, PAMPA effective permeability, donor pH 6.5, acceptor pH 7.5, 5 h, 37 °C. It counts as in vitro ADME.
The target of the next data set is CYP51 (Trypanosoma cruzi, UniProt Q7Z1V1). The data set can be described thus: CYP51 inhibition of initial hits. Type of data set: biochemical. The conditions noted are these: initial hit data, Figure 1.

Each structure is given as a SMILES string.

Sequence of CYP51 (Q7Z1V1 whole entry): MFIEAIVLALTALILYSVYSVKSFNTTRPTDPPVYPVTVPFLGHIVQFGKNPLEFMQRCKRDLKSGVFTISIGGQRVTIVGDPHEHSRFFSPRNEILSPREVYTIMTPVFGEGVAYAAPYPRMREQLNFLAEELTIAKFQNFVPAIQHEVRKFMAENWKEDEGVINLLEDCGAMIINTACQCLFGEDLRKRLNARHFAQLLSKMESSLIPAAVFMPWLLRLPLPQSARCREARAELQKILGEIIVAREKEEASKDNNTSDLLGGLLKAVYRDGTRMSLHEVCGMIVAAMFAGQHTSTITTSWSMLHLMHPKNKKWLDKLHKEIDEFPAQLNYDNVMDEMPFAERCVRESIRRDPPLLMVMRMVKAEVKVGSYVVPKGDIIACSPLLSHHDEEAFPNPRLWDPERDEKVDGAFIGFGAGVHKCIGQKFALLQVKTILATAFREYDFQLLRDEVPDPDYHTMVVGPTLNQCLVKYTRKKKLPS

With `Cc1cc(C)c(C#N)c(OCC(=O)c2ccccc2)n1` [Compound 23, O(c1nc(C)cc(C)c1C#N)CC(=O)c2ccccc2], the microsomal CLint at 0.5 µM in data set [1] amounted to 3240 µL/min/mg. In data set [2], this molecule showed a Papp at 5 h, 1 µM of 31.1 ×10⁻⁶ cm/s.

In turn, `COc1ccc(C(=O)CSc2nc(C)cc(C)c2C#N)cc1` [Compound 11, S(c1nc(C)cc(C)c1C#N)CC(=O)c2ccc(OC)cc2] returned a microsomal CLint at 0.5 µM in data set [1] of 4300 µL/min/mg. The Papp at 5 h, 1 µM in data set [2] turned out to be 24.6 ×10⁻⁶ cm/s.

For the molecule `Cc1cc(C)c(C#N)c(SCC(=O)c2ccc(Cl)cc2Cl)n1` [Compound 9, Clc1cc(ccc1C(CSc2c(C#N)c(C)cc(C)n2)=O)Cl], the microsomal CLint at 0.5 µM in data set [1] turned out to be 35300 µL/min/mg. Further, in data set [2], the Papp at 5 h, 1 µM was 1.7 ×10⁻⁶ cm/s.

`COc1ccccc1C(=O)CSc1nc(C)cc(C)c1C#N` [Compound 10, S(c1nc(C)cc(C)c1C#N)CC(=O)c2ccccc2OC] returned a microsomal CLint at 0.5 µM in data set [1] of 9670 µL/min/mg. The molecule also returned a Papp at 5 h, 1 µM in data set [2] of 9.3 ×10⁻⁶ cm/s.

`Cc1cc(C)c(C#N)c(SCC(=O)c2ccc(Cl)cc2)n1` [Compound 8, Cc1c(C#N)c(SCC(=O)c2ccc(Cl)cc2)nc(C)c1]: in data set [1], the microsomal CLint at 0.5 µM was 8880 µL/min/mg. For the same molecule, the Papp at 5 h, 1 µM in data set [2] came out at 4.3 ×10⁻⁶ cm/s.

`Cc1cc(C)c(C#N)c(SCC(=O)c2cccs2)n1` [Compound 1, c1(SCC(=O)c2cccs2)nc(C)cc(C)c1C#N]: the microsomal CLint at 0.5 µM in data set [1] worked out at 3480 µL/min/mg. Moreover, in data set [2], the Papp at 5 h, 1 µM was 25.4 ×10⁻⁶ cm/s. The “CYP51 IC50” value on CYP51 is “no clear CYP51 inhibition”.

In the case of `Cc1cc(C)c(C#N)c(SCC(=O)c2ccccc2)n1` [Compound 2, c1c(C)c(C#N)c(SCC(=O)c2ccccc2)nc1C], in data set [1], the microsomal CLint at 0.5 µM turned out to be 1560 µL/min/mg. In addition, the Papp at 5 h, 1 µM in data set [2] was found to be 20.4 ×10⁻⁶ cm/s.

For the molecule `CCc1ccc(C(=O)CSc2nc(C)cc(C)c2C#N)cc1` [Compound 5, S(c1nc(C)cc(C)c1C#N)CC(=O)c2ccc(CC)cc2], in data set [1], the microsomal CLint at 0.5 µM was determined as 8860 µL/min/mg. For the same molecule, the Papp at 5 h, 1 µM in data set [2] worked out at 1 ×10⁻⁶ cm/s.

In turn, `Cc1cc(C)c(C#N)c(SCC(=O)c2ccc(F)cc2F)n1` [Compound 7, O=C(CSc1nc(C)cc(C)c1C#N)c2ccc(F)cc2F] came in with a microsomal CLint at 0.5 µM in data set [1] of 4040 µL/min/mg. The same molecule returned a Papp at 5 h, 1 µM in data set [2] of 7.5 ×10⁻⁶ cm/s.

As to `Cc1cc(C)c(C#N)c(SCC(=O)c2ccsc2)n1` [Compound 3, S(c1nc(C)cc(C)c1C#N)CC(=O)c2cscc2], in data set [1], the microsomal CLint at 0.5 µM is 1320 µL/min/mg. Also, the Papp at 5 h, 1 µM in data set [2] worked out at 23.3 ×10⁻⁶ cm/s.

The molecule `Cc1cc(C)c(C#N)c(SCC(=O)c2ccc(F)cc2)n1` [Compound 6, S(c1nc(C)cc(C)c1C#N)CC(=O)c2ccc(F)cc2] displayed a Papp at 5 h, 1 µM in data set [2] of 8 ×10⁻⁶ cm/s.

Consider `Cc1cc(C)c(C#N)c(SCC(=O)N2CCOCC2)n1` [Compound 16, Cc1c(C#N)c(SCC(=O)N2CCOCC2)nc(C)c1], for which the microsomal CLint at 0.5 µM in data set [1] was 73.9 µL/min/mg. In data set [2], this molecule yielded a Papp at 5 h, 1 µM of 11.7 ×10⁻⁶ cm/s.

`Cc1cc(C)c(C(N)=O)c(SCC(=O)c2ccc(F)cc2)n1` [Compound 38, O=C(CSc1nc(C)cc(C)c1C(=O)N)c2ccc(F)cc2]: the microsomal CLint at 0.5 µM in data set [1] was found to be 892 µL/min/mg. In data set [2], the Papp at 5 h, 1 µM stood at 17.5 ×10⁻⁶ cm/s.
